Laboratory results reported in patent US9499550B2 (BRISTOL-MYERS SQUIBB COMPANY, priority 2012, dated 2016).
pEC50: −log10 of the molar value.

How the values were obtained:
[1] = test system: HCV genotype 1b (Con1) replicon in HUH-7 cells; test: HCV replicon luciferase reporter assay, genotype 1b; assay type: cell-based; details: Hepatitis C virus, Huh-7, 72 h, HCV genotype 1b replicon luciferase assay, 3 days incubation, range class, read-out: LE_1b (EC50, range)
Summary of the method: (§1)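 Replicon inhibition for both genotypes was measured as Renilla luciferase signal (EnduRen, 7.5 μM final, 2 h) after 3-day, 37° C exposure of replicon-bearing HUH-7 cells in 4% FCS DMEM, 0.5% DMSO. The 1b construct carries S1179I; the 1a H77 construct carries P1496L and S2204I. Twenty-point, 3-fold dilutions were fitted four-parametrically for EC50, and CC50 was taken from multiplexed Cell Titer-Blue.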

[2] = test system: HCV genotype 1a (H77 strain) replicon in HUH-7 cells; test: HCV replicon luciferase reporter assay, genotype 1a; assay type: cell-based; details: Hepatitis C virus, Huh-7, 72 h, HCV genotype 1a replicon luciferase assay, 3 days incubation, range class, read-out: LE_1a (EC50, range)
Summary of the method: as §1

SMILES | pEC50 [1] | pEC50 [2]
COc1ccc2c(O[C@@H]3C[C@H]4C(=O)N[C@]5(C(=O)NS(=O)(=O)C6CC6)C[C@H]5/C=C\CC[C@H](C)C[C@@H](C)[C@H](NC(=O)OC(C)(C)C)C(=O)N4C3)nc(-c3ccc(OC)c(F)c3)cc2c1 [Compound 3049, tert-butyl ((2R,6S,7R,9S,13aS,14aR,16aS,Z)-14a-((cyclopropylsulfonyl)carbamoyl)-2-((3-(3-fluoro-4-methoxyphenyl)-6-methoxyisoquinolin-1-yl)oxy)-7,9-dimethyl-5,16-dioxo-1,2,3,5,6,7,8,9,10,11,13a,14,14a,15,16,16a-hexadecahydrocyclopropa[e]pyrrolo[1,2-a][1,4]diazacyclopentadecin-6-yl)carbamate] | > 8.26 | > 8.26
COc1ccc2c(O[C@@H]3C[C@H]4C(=O)N[C@]5(C(=O)NS(=O)(=O)C6CC6)C[C@H]5/C=C\CC[C@@H](C)C[C@@H](C)[C@H](NC(=O)OC(C)(C)C)C(=O)N4C3)nc(-c3ccc(OC)c(F)c3)cc2c1 [Compound 3050, tert-butyl ((2R,6S,7R,9R,13aS,14aR,16aS,Z)-14a-((cyclopropylsulfonyl)carbamoyl)-2-((3-(3-fluoro-4-methoxyphenyl)-6-methoxyisoquinolin-1-yl)oxy)-7,9-dimethyl-5,16-dioxo-1,2,3,5,6,7,8,9,10,11,13a,14,14a,15,16,16a-hexadecahydrocyclopropa[e]pyrrolo[1,2-a][1,4]diazacyclopentadecin-6-yl)carbamate] | > 8.26 | > 8.26
COc1ccc2c(O[C@@H]3C[C@H]4C(=O)N[C@]5(C(=O)NS(=O)(=O)C6CC6)C[C@H]5/C=C\CC[C@H](C)C[C@@H](C)[C@H](NC(=O)OC(C)(C)C(F)(F)F)C(=O)N4C3)nc(-c3ccc(OC)c(Cl)c3)cc2c1 [Compound 3051, 1,1,1-trifluoro-2-methylpropan-2-yl((2R,6S,7R,9S,13aS,14aR,16aS,Z)-2-((3-(3-chloro-4-methoxyphenyl)-6-methoxyisoquinolin-1-yl)oxy)-14a-((cyclopropylsulfonyl)carbamoyl)-7,9-dimethyl-5,16-dioxo-1,2,3,5,6,7,8,9,10,11,13a,14,14a,15,16,16a-hexadecahydrocyclopropa[e]pyrrolo[1,2-a][1,4]diazacyclopentadecin-6-yl)carbamate] | > 8.26 | 6.99 to 8.32
COc1ccc2c(O[C@@H]3C[C@H]4C(=O)N[C@]5(C(=O)NS(=O)(=O)C6CC6)C[C@H]5/C=C\CC[C@@H](C)C[C@@H](C)[C@H](NC(=O)OC(C)(C)C(F)(F)F)C(=O)N4C3)nc(-c3ccc(OC)c(Cl)c3)cc2c1 [Compound 3052, 1,1,1-trifluoro-2-methylpropan-2-yl((2R,6S,7R,9R,13aS,14aR,16aS,Z)-2-((3-(3-chloro-4-methoxyphenyl)-6-methoxyisoquinolin-1-yl)oxy)-14a-((cyclopropylsulfonyl)carbamoyl)-7,9-dimethyl-5,16-dioxo-1,2,3,5,6,7,8,9,10,11,13a,14,14a,15,16,16a-hexadecahydrocyclopropa[e]pyrrolo[1,2-a][1,4]diazacyclopentadecin-6-yl)carbamate] | > 8.26 | > 8.26
COc1ccc2c(O[C@@H]3C[C@H]4C(=O)N[C@]5(C(=O)NS(=O)(=O)C6CC6)C[C@H]5/C=C\CC[C@H](C)C[C@@H](C)[C@H](NC(=O)O[C@@H]5C[C@@H]6C[C@@H]6C5)C(=O)N4C3)nc(-c3ccc(OC)c(Cl)c3)cc2c1 [Compound 3053, (1R,3r,5S)-bicyclo[3.1.0]hexan-3-yl((2R,6S,7R,9S,13aS,14aR,16aS,Z)-2-((3-(3-chloro-4-methoxyphenyl)-6-methoxyisoquinolin-1-yl)oxy)-14a-((cyclopropylsulfonyl)carbamoyl)-7,9-dimethyl-5,16-dioxo-1,2,3,5,6,7,8,9,10,11,13a,14,14a,15,16,16a-hexadecahydrocyclopropa[e]pyrrolo[1,2-a][1,4]diazacyclopentadecin-6-yl)carbamate] | > 8.26 | > 8.26
COc1ccc2c(O[C@@H]3C[C@H]4C(=O)N[C@]5(C(=O)NS(=O)(=O)C6CC6)C[C@H]5/C=C\CC[C@@H](C)C[C@@H](C)[C@H](NC(=O)O[C@@H]5C[C@@H]6C[C@@H]6C5)C(=O)N4C3)nc(-c3ccc(OC)c(Cl)c3)cc2c1 [Compound 3054, (1R,3r,5S)-bicyclo[3.1.0]hexan-3-yl((2R,6S,7R,9R,13aS,14aR,16aS,Z)-2-((3-(3-chloro-4-methoxyphenyl)-6-methoxyisoquinolin-1-yl)oxy)-14a-((cyclopropylsulfonyl)carbamoyl)-7,9-dimethyl-5,16-dioxo-1,2,3,5,6,7,8,9,10,11,13a,14,14a,15,16,16a-hexadecahydrocyclopropa[e]pyrrolo[1,2-a][1,4]diazacyclopentadecin-6-yl)carbamate] | > 8.26 | > 8.26
COc1ccc2c(O[C@@H]3C[C@H]4C(=O)N[C@]5(C(=O)NS(=O)(=O)C6CC6)C[C@H]5/C=C\CC[C@H](C)C[C@@H](C)[C@H](NC(=O)OC(C)(C)C(F)(F)F)C(=O)N4C3)nc(-c3ccc(OC)c(F)c3)cc2c1 [Compound 3055, 1,1,1-trifluoro-2-methylpropan-2-yl((2R,6S,7R,9S,13aS,14aR,16aS,Z)-14a-((cyclopropylsulfonyl)carbamoyl)-2-((3-(3-fluoro-4-methoxyphenyl)-6-methoxyisoquinolin-1-yl)oxy)-7,9-dimethyl-5,16-dioxo-1,2,3,5,6,7,8,9,10,11,13a,14,14a,15,16,16a-hexadecahydrocyclopropa[e]pyrrolo[1,2-a][1,4]diazacyclopentadecin-6-yl)carbamate] | > 8.26 | 6.99 to 8.32
COc1ccc2c(O[C@@H]3C[C@H]4C(=O)N[C@]5(C(=O)NS(=O)(=O)C6CC6)C[C@H]5/C=C\CC[C@@H](C)C[C@@H](C)[C@H](NC(=O)OC(C)(C)C(F)(F)F)C(=O)N4C3)nc(-c3ccc(OC)c(F)c3)cc2c1 [Compound 3056, 1,1,1-trifluoro-2-methylpropan-2-yl((2R,6S,7R,9R,13aS,14aR,16aS,Z)-14a-((cyclopropylsulfonyl)carbamoyl)-2-((3-(3-fluoro-4-methoxyphenyl)-6-methoxyisoquinolin-1-yl)oxy)-7,9-dimethyl-5,16-dioxo-1,2,3,5,6,7,8,9,10,11,13a,14,14a,15,16,16a-hexadecahydrocyclopropa[e]pyrrolo[1,2-a][1,4]diazacyclopentadecin-6-yl)carbamate] | > 8.26 | > 8.26
COc1ccc2c(O[C@@H]3C[C@H]4C(=O)N[C@]5(C(=O)NS(=O)(=O)C6CC6)C[C@H]5/C=C\CC[C@H](C)C[C@@H](C)[C@H](NC(=O)O[C@@H]5C[C@@H]6C[C@@H]6C5)C(=O)N4C3)nc(-c3ccc(OC)c(F)c3)cc2c1 [Compound 3057, (1R,3r,5S)-bicyclo[3.1.0]hexan-3-yl((2R,6S,7R,9S,13aS,14aR,16aS,Z)-14a-((cyclopropylsulfonyl)carbamoyl)-2-((3-(3-fluoro-4-methoxyphenyl)-6-methoxyisoquinolin-1-yl)oxy)-7,9-dimethyl-5,16-dioxo-1,2,3,5,6,7,8,9,10,11,13a,14,14a,15,16,16a-hexadecahydrocyclopropa[e]pyrrolo[1,2-a][1,4]diazacyclopentadecin-6-yl)carbamate] | > 8.26 | > 8.26
COc1ccc2c(O[C@@H]3C[C@H]4C(=O)N[C@]5(C(=O)NS(=O)(=O)C6CC6)C[C@H]5/C=C\CC[C@@H](C)C[C@@H](C)[C@H](NC(=O)O[C@@H]5C[C@@H]6C[C@@H]6C5)C(=O)N4C3)nc(-c3ccc(OC)c(F)c3)cc2c1 [Compound 3058, (1R,3r,5S)-bicyclo[3.1.0]hexan-3-yl((2R,6S,7R,9R,13aS,14aR,16aS,Z)-14a-((cyclopropylsulfonyl)carbamoyl)-2-((3-(3-fluoro-4-methoxyphenyl)-6-methoxyisoquinolin-1-yl)oxy)-7,9-dimethyl-5,16-dioxo-1,2,3,5,6,7,8,9,10,11,13a,14,14a,15,16,16a-hexadecahydrocyclopropa[e]pyrrolo[1,2-a][1,4]diazacyclopentadecin-6-yl)carbamate] | > 8.26 | > 8.26
COc1ccc2c(O[C@@H]3C[C@H]4C(=O)N[C@]5(C(=O)NS(=O)(=O)C6CC6)C[C@H]5/C=C\CC[C@H](C)C[C@@H](C)[C@H](NC(=O)OC(C)(C)C)C(=O)N4C3)nc(-c3ccc(OC(C)C)c(F)c3)cc2c1 [Compound 3059, tert-butyl ((2R,6S,7R,9S,13aS,14aR,16aS,Z)-14a-((cyclopropylsulfonyl)carbamoyl)-2-((3-(3-fluoro-4-isopropoxyphenyl)-6-methoxyisoquinolin-1-yl)oxy)-7,9-dimethyl-5,16-dioxo-1,2,3,5,6,7,8,9,10,11,13a,14,14a,15,16,16a-hexadecahydrocyclopropa[e]pyrrolo[1,2-a][1,4]diazacyclopentadecin-6-yl)carbamate] | > 8.26 | 6.99 to 8.32
COc1ccc2c(O[C@@H]3C[C@H]4C(=O)N[C@]5(C(=O)NS(=O)(=O)C6CC6)C[C@H]5/C=C\CC[C@@H](C)C[C@@H](C)[C@H](NC(=O)OC(C)(C)C)C(=O)N4C3)nc(-c3ccc(OC(C)C)c(F)c3)cc2c1 [Compound 3060, tert-butyl ((2R,6S,7R,9R,13aS,14aR,16aS,Z)-14a-((cyclopropylsulfonyl)carbamoyl)-2-((3-(3-fluoro-4-isopropoxyphenyl)-6-methoxyisoquinolin-1-yl)oxy)-7,9-dimethyl-5,16-dioxo-1,2,3,5,6,7,8,9,10,11,13a,14,14a,15,16,16a-hexadecahydrocyclopropa[e]pyrrolo[1,2-a][1,4]diazacyclopentadecin-6-yl)carbamate] | > 8.26 | > 8.26
